Where a SMILES comes first, the peptide text is derived from it. The star is where a group is joined. Cbz = O=C(OCc1ccccc1)*
Experiments:
[1] = tested on: NDRG3 protein in MCF-7 cells; test: NDRG3 protein expression after inhibition of glycolysis, MCF-7 cells; type: cell-based; conditions: varying concentration, 24 hours, hypoxic condition (1% O2)
Method: Additionally, to check an effect of inhibition of glycolysis on expression of the NDRG3 protein, MCF-7 cells were treated with a varying concentration of 2-deoxyglucose (2-DG) inhibiting the glycolysis, statically cultured for 24 hours under a hypoxic condition (1% O2), as described in Example 5-2, and then collected and lysed, as described in Example 3. Thereafter, the MCF-7 cells were subjected to Western blotting using anti-NDRG3 and anti-β-actin antibodies (FIG. 15D).

[2] = tested on: NDRG3 protein in MCF-7 cells; test: NDRG3 protein accumulation after inhibition of L-lactate generation, MCF-7 cells; type: cell-based; conditions: varying concentration, 24 hours, hypoxic condition (1% O2)
Method: Also, to check an effect of inhibition of the L-lactate generation on expression of the NDRG3 protein, MCF-7 cells were treated with a varying concentration of sodium oxamate that was a lactate dehydrogenase A (LDHA) inhibitor, statically cultured for 24 hours under a hypoxic condition (1% O2), as described in Example 5-2, and then collected and lysed, as described in Example 3. Thereafter, the cell lysate was subjected to Western blotting using anti-NDRG3, anti-HIF-1α and anti-β-actin antibodies, as described above, and L-lactate generation was determined, and then plotted in a graph. The values were normalized to the L-lactate standard curve (FIG. 15B).

[3] = tested on: Huh-1 cells; test: MTT assay of cell growth, Huh-1 cells; type: cell-based; conditions: varying concentration, light hypoxic condition (3% O2)
Method: (§1) Specifically, to check the cell growth in response to the NDRG3 deletion, an MTT assay was performed. First, the NDRG3-deleted Huh-1 cells prepared by the method disclosed in Example 6-1, and the control Huh-1 cells was seeded at a density of 2,000 cells/well in a 96-well plate, and then cultured at 37° C. in a 5% CO2 incubator under a hypoxic condition (3% O2) over time. Thereafter, the cells were treated with a 1 mg/ml MTT solution diluted with PBS, and reacted for 2 hours. Then, a medium containing the MTT was removed, and the cells were treated with 100 μl of DMSO to dissolve MTT formazan crystals. Subsequently, an optical density of the cell suspension was measured at a wavelength of 570 nm using a spectrophotometer (FIG. 14A).
(§2) Specifically, to check an effect of the ectopic NDRG3 (N66D) variant on the cell growth after inhibition of the lactate generation, Huh-1 cells were transfected with an ectopic variant NDRG3 (N66D) expression vector, as described in Example 4-3. Then, the Huh-1 cells and the NDRG3 (N66D) variant-overexpressing Huh-1 cells were seeded at a density of 1,000 cells/well in a 96-well plate, treated with a varying concentration of sodium oxamate, statically cultured by time under a light hypoxic condition (3% O2). Thereafter, to check the cell growth, an MTT assay was performed, as described in Example 6-3, and plotted in a graph (FIG. 17A).

[4] = tested on: NDRG3 (N66D) variant-overexpressing Huh-1 cells; test: MTT assay of cell growth, NDRG3 (N66D) variant-overexpressing Huh-1 cells; type: cell-based; conditions: ectopic NDRG3 (N66D) variant overexpressed, light hypoxic condition (3% O2)
Method: as §1, §2

[5] = tested on: NDRG3 protein in Huh-1 cells; test: NDRG3 accumulation after inhibition of lactate generation, Western blotting, Huh-1 cells; type: cell-based; conditions: 40 mM, light hypoxic condition
Method: (§3) Also, to check an effect of the inhibition of the lactate generation on expression of the ectopic variant NDRG3 (N66D) protein under a sustained hypoxic condition, Huh-1 cells and the NDRG3 (N66D) variant-overexpressing Huh-1 cells were untreated or treated with 40 mM sodium oxamate, statically cultured by time under a light hypoxic condition, and then collected and lysed, as described in Example 3. Thereafter, the cell lysate was subjected to Western blotting using anti-NDRG3 and anti-β-actin antibodies (FIG. 17E).

[6] = tested on: NDRG3 (N66D) variant in Huh-1 cells; test: NDRG3 variant accumulation after inhibition of lactate generation, NDRG3 (N66D)-overexpressing Huh-1 cells; type: cell-based; conditions: ectopic NDRG3 (N66D) variant overexpressed, 40 mM, light hypoxic condition
Method: as §3

[7] = tested on: human umbilical vein endothelial cells (HUVEC); test: Tube forming assay, culture broth of Huh-1 cells; type: cell-based; conditions: control Huh-1 cells, 24 hours, hypoxic condition (1% O2)
Method: (§4) Specifically, a tube forming assay was performed to check a change in angiogenesis activity by the NDRG3 deletion. First, the Huh-7 cells (2×10^5 cells/ml) in which the expression of the NDRG3 was inhibited using shNDRG3 according to the method described in Example 4-4, and the control Huh-7 cells were cultured for 24 hours under a hypoxic condition (1% O2), and a culture broth (1 ml) was recovered, and then cultured with human umbilical vein endothelial cells (HUVEC; 1×10^5 cells/ml) for 6 to 12 hours in a 6-well dish previously coated with Matrigel to observe formation of tubes (FIG. 13A).
(§5) Specifically, Huh-1 cells in which the NDRG3 (N66D) variant was overexpressed were prepared, and the control cells and the NDRG3 (N66D) variant-overexpressing Huh-1 cells were untreated or treated with sodium oxamate, statically cultured for 24 hours under a hypoxic condition (1% O2). Thereafter, the cells were collected, as described in Example 6-2, and then subjected to a tube forming assay (FIG. 18).

[8] = tested on: human umbilical vein endothelial cells (HUVEC); test: Tube forming assay, culture broth of NDRG3 (N66D) variant-overexpressing Huh-1 cells; type: cell-based; conditions: ectopic NDRG3 (N66D) variant overexpressed, 24 hours, hypoxic condition (1% O2)
Method: as §4, §5

[9] = tested on: NDRG3 protein in NDRG3-overexpressing HeLa cells; test: In vivo ubiquitination assay of NDRG3 under proteasome inhibition; type: cell-based; conditions: 20 μM for 8 hours, normoxic condition
Method: Specifically, a vector for transfection (an MSCV retroviral system) was constructed using a full-length NDRG3 cDNA (SEQ ID NO: 1) and a pMSCVneo retroviral vector (Clontech). To construct the viral vector, a GP293 cell line was transfected using lipofectamine (Invitrogen). After 48 hours, HeLa cells were treated with a cell supernatant containing NDRG3-retroviruses or control-retroviruses together with 6 μg/ml of polybrene for 24 hours. Then, the cells in which the NDRG3 was overexpressed were untreated or treated with 20 μM MG132 for 8 hours, and then collected. The collected cells were subjected to Western blotting using an anti-NDRG3 antibody and an anti-β-actin antibody (FIG. 7A).
Also, to determine ubiquitination of NDRG3 under a normoxic condition, an in vivo ubiquitination assay was performed. First, a vector for transfection was constructed using shNDRG3 (Sigma-Aldrich, SEQ ID NO: 4) and a lentiviral vector to inhibit expression of the NDRG3. To construct the viral vector, a packing cell line was transfected as described above. Thereafter, HeLa cells were treated with a cell supernatant containing the NDRG3 shRNA-expressing lentiviruses together with 6 μg/ml of polybrene, and kept in a DMEM medium supplemented with 10% FBS. […]

[10] = tested on: NDRG3 protein in MCF-7 cells; test: NDRG3 protein expression after PHD2 inhibition, Western blotting, MCF-7 cells; type: cell-based; conditions: varying concentration, 24 hours, normoxic condition (21% O2)
Method: (§6) Also, to determine the functional relationship between PHD2 and NDRG3, MCF-7 cells (FIG. 4B) or HeLa cells (FIG. 4C) were treated with a varying concentration of desferrioxamine (DFX), which was a PHD2 inhibitor, for 24 hours under a normoxic condition (21% O2), and then lysed, as described in Example 3. The cell lysate was subjected to Western blotting using anti-NDRG3, anti-HIF-1α, and anti-β-actin (FIGS. 4B and 4C).

[11] = tested on: NDRG3 protein in HeLa cells; test: NDRG3 protein expression after PHD2 inhibition, Western blotting, HeLa cells; type: cell-based; conditions: varying concentration, 24 hours, normoxic condition (21% O2)
Method: as §6

[12] = target: T1, recombinant human NDRG3-GST (Homo sapiens, UniProt Q9UGV2); test: In vitro ubiquitination assay of recombinant NDRG3 by PHD2/VHL complex; type: biochemical; conditions: L-lactate pH 7.0, 20 mM
T1 construct: made in house; host or cells: E. coli BL21 (NDRG3-GST); HEK293T immunoprecipitates (PHD2, VHL)
T1 sequence (Q9UGV2 whole entry): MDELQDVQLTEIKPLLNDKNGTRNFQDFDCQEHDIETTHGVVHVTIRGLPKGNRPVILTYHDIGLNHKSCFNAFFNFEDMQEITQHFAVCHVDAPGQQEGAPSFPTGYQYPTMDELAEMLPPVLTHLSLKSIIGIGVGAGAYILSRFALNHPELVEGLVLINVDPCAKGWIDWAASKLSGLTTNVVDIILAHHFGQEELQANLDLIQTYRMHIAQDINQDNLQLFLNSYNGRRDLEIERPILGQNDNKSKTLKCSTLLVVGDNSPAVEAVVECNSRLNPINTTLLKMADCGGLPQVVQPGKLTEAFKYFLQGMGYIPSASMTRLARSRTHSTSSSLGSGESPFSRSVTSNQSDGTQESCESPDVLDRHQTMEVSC
Method: Further, to check an effect of lactate generation on ubiquitination of the NDRG3, an in vitro ubiquitination assay was performed. First, HEK293T cells were transfected with the Flag-tagged PHD2 and HA-tagged VHL variants, as described in Example 3, collected, and then lysed. Thereafter, the protein lysate (500 μg) was reacted with an anti-HA affinity gel (Sigma) or an anti-Flag affinity gel (Sigma) at 4° C. for a day, and centrifuged to obtain recombinant PHD2 proteins or VHL proteins. Then, the recombinant PHD2-/VHL-binding proteins were untreated or treated with L-lactate (pH 7.0, 20 mM), and then reacted at 37° C. for an hour in 50 μl of a solution including recombinant human NDRG3-GST (4 μg) prepared by the method described in Example 4-1, 500 ng of a ubiquitin-activating enzyme (E1, Upstate), 1 μg of a ubiquitin-conjugating enzyme (E2 (UbcH5a), Upstate), 2.5 μg of ubiquitin-Flag (Sigma), 20 mM HEPES (pH 7.3), 5 mM MgCl2, 1 mM DTT, and 2 mM ATP. Subsequently, the mixture was incubated with a GST-conjugated agarose resin at 4° C. for 4 hours, and the precipitate was washed, and subjected to Western blotting using an anti-Flag antibody, as described in Example 3 (FIG. 15F).

[13] = target: T2, recombinant GST-NDRG3 protein (Homo sapiens, UniProt Q9UGV2); test: In vitro binding assay with L-[14C]-lactate, wild-type NDRG3; conditions: 50 μg GST-NDRG3 versus GST, 30° C., one hour
T2 construct: made in house; host or cells: E. coli BL21
T2 sequence (Q9UGV2 whole entry): as above
Method: Also, to confirm interaction between L-lactate and the NDRG3 protein, an in vitro binding assay was performed. GST or the recombinant GST-NDRG3 protein (50 μg) was reacted with 0.5 μCi of unlabeled L-lactate (pH 7.0, Sigma) and L-[^14C]-lactate (PerkinElmer) at 30° C. for an hour. Thereafter, a GST-conjugated agarose resin was added thereto, and the resulting mixture was reacted for 4 hours. Then, a resin to which the NDRG3-GST protein was bound was separated from the reaction mixture, and impurities were removed using PBS. Subsequently, the NDRG3-bound agarose resin was transferred to a scintillation solution containing 2 ml of an LSC-cocktail (PerkinElmer), and ^14C values were measured, and plotted in a graph (Left panel of FIG. 16B). Also, GST, the recombinant GST-NDRG3 protein (50 μg) or the recombinant GST-NDRG3 (G138W) variant protein (50 μg) was reacted with 0.5 μCi of L-[^14C]-lactate (PerkinElmer) at 30° C. for an hour, and ^14C values were then measured in the same manner as described above, and plotted in a graph (Right panel of FIG. 16B).

[14] = target: T3, recombinant GST-NDRG3 (G138W) variant protein (Homo sapiens, UniProt Q9UGV2, G138W); test: In vitro binding assay with L-[14C]-lactate, NDRG3 (G138W) variant; conditions: 50 μg GST-NDRG3 (G138W) versus GST-NDRG3
T3 construct: made in house; host or cells: E. coli BL21
T3 sequence (Q9UGV2 whole entry G138W): as the sequence (Q9UGV2 whole entry) above, with G138W counted along it
Method: Specifically, to confirm interaction between L-lactate and the NDRG3 protein, a site-directed mutation was performed, as described in Example 4-3, using the pGEX-4T-2-NDRG3, which was cloned by the method disclosed in Example 4-1, as a template, and primers listed in the following Table 4, thereby obtaining a pGEX-4T-2-NDRG3 (G138W) variant construct in which glycine (G) that was an amino acid at position 138 among the L-lactate binding sites of the NDRG3 was substituted with […]. […]
Also, to confirm interaction between L-lactate and the NDRG3 protein, an in vitro binding assay was performed. […] Subsequently, the NDRG3-bound agarose resin was transferred to a scintillation solution containing 2 ml of an LSC-cocktail (PerkinElmer), and ^14C values were measured, and plotted in a graph (Left panel of FIG. 16B). Also, GST, the recombinant GST-NDRG3 protein (50 μg) or the recombinant GST-NDRG3 (G138W) variant protein (50 μg) was reacted with 0.5 μCi of L-[^14C]-lactate (PerkinElmer) at 30° C. for an hour, and ^14C values were then measured in the same manner as described above, and plotted in a graph (Right panel of FIG. 16B).

With `O=CC[C@@H](O)[C@H](O)[C@H](O)CO` [2-deoxyglucose] the “expression of NDRG3 protein” value [1] was “reduced”.
For `NC(=O)C(=O)[O-].[Na+]` [sodium oxamate], the “accumulation of NDRG3 protein” value [2] was “inhibited in proportion to the lactate expression”, the “cell growth (MTT)” value [3] was “inhibited in a concentration-dependent manner” and the “cell growth (MTT)” value [4] was “increased”. For the same compound, the “accumulation of NDRG3” value [5] was “inhibited”, the “accumulation of NDRG3 variant” value [6] was “lasted” and the “angiogenesis (tube formation)” value [7] was “inhibited”. The “angiogenesis (tube formation)” value [8] was “increased again”.
With `CC(C)C[C@@H](C=O)NC(=O)[C@H](CC(C)C)NC(=O)[C@H](CC(C)C)NC(=O)OCc1ccccc1` [MG132] (Cbz-Leu-Leu-Leu-aldehyde) the “ubiquitination of NDRG3 protein” value [9] was “actively ubiquitinated”.
In the case of `CC(=O)N(O)CCCCCNC(=O)CCC(=O)N(O)CCCCCNC(=O)CCC(=O)N(O)CCCCCN` [DFX, desferrioxamine], the “expression of NDRG3 protein” value [10] is reported as “increasingly expressed” and the “expression of NDRG3 protein” value [11] is reported as “increasingly expressed”.
For `C[C@H](O)C(=O)O` [lactate, L-lactate], the “ubiquitination of recombinant NDRG3 protein by PHD2/VHL complex” value [12] was “reduced”, the “in vitro binding of recombinant NDRG3 protein to lactate (14C values)” value [13] was “increased” and the “lactate-binding affinity of NDRG3 variant protein (14C values)” value [14] was “reduced”.
